{"source": "patent US9266867B2", "about": "“Piperidinyl monocarboxylic acids as S1P1 receptor agonists” (BIOPROJET, priority 2011, dated 2016)", "molecular_target": "EDG-1 (Homo sapiens, UniProt P21453)", "sequence (P21453 whole entry)": "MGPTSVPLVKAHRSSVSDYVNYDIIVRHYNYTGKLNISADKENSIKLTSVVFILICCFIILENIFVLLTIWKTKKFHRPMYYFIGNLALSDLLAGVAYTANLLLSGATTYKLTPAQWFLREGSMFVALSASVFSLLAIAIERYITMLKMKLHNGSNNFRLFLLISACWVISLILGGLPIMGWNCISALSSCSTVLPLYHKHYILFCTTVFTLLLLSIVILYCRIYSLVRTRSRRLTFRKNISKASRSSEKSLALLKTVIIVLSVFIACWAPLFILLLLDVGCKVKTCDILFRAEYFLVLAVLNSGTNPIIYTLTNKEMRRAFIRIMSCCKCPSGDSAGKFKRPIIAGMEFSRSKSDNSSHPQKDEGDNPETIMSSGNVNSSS", "experiment": "35S-GTPγS binding assay, EDG1 (S1P1)", "assay_type": "biochemical", "design": "expressed in transfected cells", "procedure": "a) 35S-GTPγS Binding Assay GTP-γ-^35S binding was performed using […]15 μg protein of cell membranes suspended in 50 mM tris-HCl pH 7.5 containing 10 mM MgCl2, 100 mM NaCl and 10 μM GDP. The radioligand was 0.025 nM [^35S] GTP-γ-S and non specific binding determined in the presence of 10 μM non-radioactive GTP-γ-S. […] The maximal stimulation elicited by S1P was taken as a reference to define full or partial agonism and calculate the intrinsic activity (i.a.) of compounds.", "note": "Where a name gives a salt, the structure may show the parent alone. Read-outs that look alike come from different tables or passages of the source."}
{"compound": "COCC1(C(=O)O)CCN(Cc2ccc(-c3noc(-c4ccc(CC(C)C)c(Cl)c4)n3)cc2)CC1", "note": "[Example 16, 1-{4-[5-(3-Chloro-4-isobutylphenyl)-[1,2,4]-oxadiazol-3-yl]-benzyl}-4-methoxymethylpiperidine-4-carboxylic acid tert-butyl amine salt]", "values": [{"measurement": "EC50", "setting": "Table 1b, read-out: EDG1 EC50", "value": "< 1", "unit": "nM"}]}
{"compound": "C=CCC1(C(=O)O)CCN(Cc2ccc(-c3noc(-c4ccc(-c5ccccc5)c(Cl)c4)n3)cc2)CC1", "note": "[Example 17, 4-Allyl-1-{4-[5-(2-chlorobiphenyl-4-yl)-[1,2,4]-oxadiazol-3-yl]-benzyl}piperidine-4-carboxylic acid tert-butyl amine salt]", "values": [{"measurement": "EC50", "setting": "Table 1b, read-out: EDG1 EC50", "value": "< 1", "unit": "nM"}]}
{"compound": "CCCC1(C(=O)O)CCN(Cc2ccc(-c3noc(-c4ccc(-c5ccccc5)c(Cl)c4)n3)cc2)CC1", "note": "[Example 18, 1-{4-[5-(2-Chlorobiphenyl-4-yl)-[1,2,4]-oxadiazol-3-yl]-benzyl}-4-propylpiperidine-4-carboxylic acid tert-butyl amine salt]", "values": [{"measurement": "EC50", "setting": "Table 1b, read-out: EDG1 EC50", "value": "< 1", "unit": "nM"}]}
{"compound": "COCCOCC1(C(=O)O)CCN(Cc2ccc(-c3noc(-c4ccc(-c5ccccc5)c(Cl)c4)n3)cc2)CC1", "note": "[Example 19, 1-{4-[5-(2-Chlorobiphenyl-4-yl)-[1,2,4]-oxadiazol-3-yl]-benzyl}-4-(2-methoxyethoxymethyl)piperidine-4-carboxylic acid tert-butyl amine salt]", "values": [{"measurement": "EC50", "setting": "Table 1b, read-out: EDG1 EC50", "value": "< 1", "unit": "nM"}]}
{"compound": "O=C(O)C1(COCc2ccccc2)CCN(Cc2ccc(-c3noc(-c4ccc(-c5ccccc5)c(Cl)c4)n3)cc2)CC1", "note": "[Example 20, 4-Benzyloxymethyl-1-{4-[5-(2-chlorobiphenyl-4-yl)-[1,2,4]-oxadiazol-3-yl]-benzyl}piperidine-4-carboxylic acid tert-butyl amine salt]", "values": [{"measurement": "EC50", "setting": "Table 1b, read-out: EDG1 EC50", "value": "< 1", "unit": "nM"}]}
{"compound": "CC(C)Cc1ccc(-c2nc(-c3ccc(CN4CCC(COCc5ccccc5)(C(=O)O)CC4)cc3)no2)cc1Cl", "note": "[Example 21, 4-Benzyloxymethyl-1-[4-{5-(3-chloro-4-isobutylphenyl)-[1,2,4]-oxadiazol-3-yl]-benzyl}piperidine-4-carboxylic acid tert-butyl amine salt]", "values": [{"measurement": "EC50", "setting": "Table 1b, read-out: EDG1 EC50", "value": "< 1", "unit": "nM"}]}
{"compound": "O=C(O)C1(CO)CCN(Cc2ccc(-c3noc(-c4ccc(-c5ccccc5)c(Cl)c4)n3)cc2)CC1", "note": "[Example 22, 1-{4-[5-(2-Chlorobiphenyl-4-yl)-[1,2,4]-oxadiazol-3-yl]-benzyl}-4-hydroxymethylpiperidine-4-carboxylic acid tert-butyl amine salt]", "values": [{"measurement": "EC50", "setting": "Table 1b, read-out: EDG1 EC50", "value": "< 1", "unit": "nM"}]}
{"compound": "CC(C)Cc1ccc(-c2nc(-c3ccc(CN4CCC(C(=O)O)(c5ccccc5)CC4)cc3)no2)cc1Cl", "note": "[Example 23, 1-{4-[5-(3-Chloro-4-isobutylphenyl)-[1,2,4]-oxadiazol-3-yl]-benzyl}-4-phenylpiperidine-4-carboxylic acid tert-butyl amine salt]", "values": [{"measurement": "EC50", "value": "< 10", "unit": "nM"}]}
{"compound": "CC(C)Cc1ccc(-c2nc(-c3ccc(CN4CCC(Cc5ccccc5)(C(=O)O)CC4)cc3)no2)cc1Cl", "note": "[Example 24, 4-Benzyl-1-[4-{5-(3-chloro-4-isobutylphenyl)-[1,2,4]-oxadiazol-3-yl]benzyl}-piperidine-4-carboxylic acid tert-butyl amine salt]", "values": [{"measurement": "EC50", "setting": "Table 1b, read-out: EDG1 EC50", "value": "< 10", "unit": "nM"}]}
{"compound": "CC(C)Cc1ccc(-c2nc(-c3ccc(CN4CCC(Cc5ccc(F)cc5)(C(=O)O)CC4)cc3)no2)cc1Cl", "note": "[Example 25, 1-{4-[5-(3-Chloro-4-isobutyl-phenyl)-[1,2,4]-oxadiazol-3-yl]-benzyl}-4-(4-fluoro-benzyl)-piperidine-4-carboxylic acid tert-butyl amine salt]", "values": [{"measurement": "EC50", "setting": "Table 1b, read-out: EDG1 EC50", "value": "< 1", "unit": "nM"}]}
{"compound": "CC(C)Cc1ccc(-c2nc(-c3ccc(CN4CCC(Cc5ccccc5F)(C(=O)O)CC4)cc3)no2)cc1Cl", "note": "[Example 26, 1-{4-[5-(3-Chloro-4-isobutyl-phenyl)-[1,2,4]-oxadiazol-3-yl]-benzyl}-4-(2-fluoro-benzyl)-piperidine-4-carboxylic acid tert-butyl amine salt]", "values": [{"measurement": "EC50", "setting": "Table 1b, read-out: EDG1 EC50", "value": "< 1", "unit": "nM"}]}
{"compound": "COc1ccc(CC2(C(=O)O)CCN(Cc3ccc(-c4noc(-c5ccc(CC(C)C)c(Cl)c5)n4)cc3)CC2)cc1", "note": "[Example 27, 1-{4-[5-(3-Chloro-4-isobutyl-phenyl)-[1,2,4]-oxadiazol-3-yl]-benzyl}-4-(4-methoxy-benzyl)-piperidine-4-carboxylic acid tert-butyl amine salt]", "values": [{"measurement": "EC50", "setting": "Table 1b, read-out: EDG1 EC50", "value": "< 1", "unit": "nM"}]}
{"compound": "COc1ccccc1CC1(C(=O)O)CCN(Cc2ccc(-c3noc(-c4ccc(CC(C)C)c(Cl)c4)n3)cc2)CC1", "note": "[Example 28, 1-{4-[5-(3-Chloro-4-isobutyl-phenyl)-[1,2,4]-oxadiazol-3-yl]-benzyl}-4-(2-methoxy-benzyl)-piperidine-4-carboxylic acid tert-butyl amine salt]", "values": [{"measurement": "EC50", "setting": "Table 1b, read-out: EDG1 EC50", "value": "< 1", "unit": "nM"}]}
{"compound": "COCC1(C(=O)O)CCN(Cc2ccc(-c3noc(-c4ccc(-c5ccccc5)c(Cl)c4)n3)cc2)CC1", "note": "[Example 29, 1-{4-[5-(2-chlorobiphenyl-4-yl)-[1,2,4]-oxadiazol-3-yl]benzyl}-4-methoxymethylpiperidine-4-carboxylic acid tert-butyl amine salt]", "values": [{"measurement": "EC50", "setting": "Table 1b, read-out: EDG1 EC50", "value": "< 1", "unit": "nM"}]}
{"compound": "CCC1(C(=O)O)CCN(Cc2ccc(-c3noc(-c4ccc(-c5ccccc5)c(Cl)c4)n3)cc2)CC1", "note": "[Example 30, 1-{4-[5-(2-Chlorobiphenyl-4-yl)-[1,2,4]-oxadiazol-3-yl]-benzyl}-4-ethylpiperidine-4-carboxylic acid tert-butyl amine salt]", "values": [{"measurement": "EC50", "setting": "Table 1b, read-out: EDG1 EC50", "value": "< 1", "unit": "nM"}]}
{"compound": "CC(C)Cc1ccc(-c2nc(-c3ccc(CN4CCC(C)(C(=O)O)CC4)cc3)no2)cc1", "note": "[Example 31, 1-{4-[5-(4-Isobutyl-phenyl)-[1,2,4]-oxadiazol-3-yl]-benzyl}-4-methyl-piperidine-4-carboxylic acid tert-butyl amine salt]", "values": [{"measurement": "EC50", "setting": "Table 1b, read-out: EDG1 EC50", "value": "< 10", "unit": "nM"}]}
{"compound": "COCCCCC1(C(=O)O)CCN(Cc2ccc(-c3noc(-c4ccc(CC(C)C)c(Cl)c4)n3)cc2)CC1", "note": "[Example 32, 1-{4-[5-(3-Chloro-4-isobutylphenyl-[1,2,4]-oxadiazol-3-yl]benzyl}-4-(4-methoxybutyl)piperidine-4-carboxylic acid tert-butylamine salt]", "values": [{"measurement": "EC50", "setting": "Table 1b, read-out: EDG1 EC50", "value": "< 1", "unit": "nM"}]}
{"compound": "COCCOCC1(C(=O)O)CCN(Cc2ccc(-c3noc(-c4ccc(CC(C)C)c(Cl)c4)n3)cc2)CC1", "note": "[Example 33, 1-{4-[5-(3-chloro-4-isobutylphenyl)-[1,2,4]-oxadiazol-3-yl]benzyl}-4-(2-methoxyethoxymethyl)piperidine-4-carboxylic acid potassium salt]", "values": [{"measurement": "EC50", "setting": "Table 1b, read-out: EDG1 EC50", "value": "< 1", "unit": "nM"}]}
{"compound": "CC(C)Cc1ccc(-c2nc(-c3ccc(CN4CCC(CCOc5ccccc5)(C(=O)O)CC4)cc3)no2)cc1Cl", "note": "[Example 34, 1-{4-[5-(3-Chloro-4-isobutyl-phenyl)-[1,2,4]-oxadiazol-3-yl]-benzyl}-4-(2-phenoxy-ethyl)-piperidine-4-carboxylic acid tert-butyl amine salt]", "values": [{"measurement": "EC50", "setting": "Table 1b, read-out: EDG1 EC50", "value": "< 1", "unit": "nM"}]}
{"compound": "CC(C)Cc1ccc(-c2nc(-c3ccc(CN4CCC(Cc5c(F)cccc5F)(C(=O)O)CC4)cc3)no2)cc1Cl", "note": "[Example 35, 1-{4-[5-(3-Chloro-4-isobutyl-phenyl)-[1,2,4]-oxadiazol-3-yl]-benzyl}-4-(2,6-difluoro-benzyl)-piperidine-4-carboxylic acid tert-butyl amine salt]", "values": [{"measurement": "EC50", "setting": "Table 1b, read-out: EDG1 EC50", "value": "< 1", "unit": "nM"}]}
{"compound": "CC(C)Cc1ccc(-c2nc(-c3ccc(CN4CCC(CC(C)C)(C(=O)O)CC4)cc3)no2)cc1Cl", "note": "[Example 36, 1-{4-[5-(3-Chloro-4-isobutyl-phenyl)-[1,2,4]-oxadiazol-3-yl]-benzyl}-4-isobutyl-piperidine-4-carboxylic acid tert-butyl amine salt]", "values": [{"measurement": "EC50", "setting": "Table 1b, read-out: EDG1 EC50", "value": "< 10", "unit": "nM"}]}
{"compound": "CC(C)Cc1ccc(-c2nc(-c3ccc(CN4CCC(C(=O)O)(C(C)C)CC4)cc3)no2)cc1Cl", "note": "[Example 37, 1-{4-[5-(3-Chloro-4-isobutyl-phenyl)-[1,2,4]-oxadiazol-3-yl]-benzyl}-4-isopropyl-piperidine-4-carboxylic acid tert-butyl amine salt]", "values": [{"measurement": "EC50", "setting": "Table 1b, read-out: EDG1 EC50", "value": "< 1", "unit": "nM"}]}
{"compound": "CC(C)Cc1ccc(-c2nc(-c3ccc(CN4CCC(Cc5cccc(C(F)(F)F)c5)(C(=O)O)CC4)cc3)no2)cc1Cl", "note": "[Example 38, 1-{4-[5-(3-Chloro-4-isobutyl-phenyl)-[1,2,4]-oxadiazol-3-yl]-benzyl}-4-(3-trifluoromethyl-benzyl)-piperidine-4-carboxylic acid tert-butyl amine salt]", "values": [{"measurement": "EC50", "setting": "Table 1b, read-out: EDG1 EC50", "value": "< 10", "unit": "nM"}]}
{"compound": "CC(C)Cc1ccc(-c2nc(-c3ccc(CN4CCC(Cc5ccco5)(C(=O)O)CC4)cc3)no2)cc1Cl", "note": "[Example 39, 1-{4-[5-(3-Chloro-4-isobutyl-phenyl)-[1,2,4]-oxadiazol-3-yl]-benzyl}-4-furan-2-ylmethyl-piperidine-4-carboxylic acid tert-butyl amine salt]", "values": [{"measurement": "EC50", "setting": "Table 1b, read-out: EDG1 EC50", "value": "< 10", "unit": "nM"}]}
{"compound": "CC(C)Cc1ccc(-c2nc(-c3ccc(CN4CCC(Cc5ccccn5)(C(=O)O)CC4)cc3)no2)cc1Cl", "note": "[Example 40, 1-{4-[5-(3-Chloro-4-isobutyl-phenyl)-[1,2,4]-oxadiazol-3-yl]-benzyl}-4-pyridin-2-ylmethyl-piperidine-4-carboxylic acid tert-butyl amine salt]", "values": [{"measurement": "EC50", "setting": "Table 1b, read-out: EDG1 EC50", "value": "< 1", "unit": "nM"}]}
{"compound": "COc1ccccc1OCCC1(C(=O)O)CCN(Cc2ccc(-c3noc(-c4ccc(CC(C)C)c(Cl)c4)n3)cc2)CC1", "note": "[Example 41, 1-{4-[5-(3-Chloro-4-isobutyl-phenyl)-[1,2,4]-oxadiazol-3-yl]-benzyl}-4-[2-(2-methoxy-phenoxy)-ethyl]-piperidine-4-carboxylic acid tert-butyl amine salt]", "values": [{"measurement": "EC50", "setting": "Table 1b, read-out: EDG1 EC50", "value": "< 1", "unit": "nM"}]}
{"compound": "CC(C)Cc1ccc(-c2nc(-c3ccc(CN4CCC(Cc5cccnc5)(C(=O)O)CC4)cc3)no2)cc1Cl", "note": "[Example 42, 1-{4-[5-(3-Chloro-4-isobutyl-phenyl)-[1,2,4]-oxadiazol-3-yl]-benzyl}-4-pyridin-3-ylmethyl-piperidine-4-carboxylic acid tert-butyl amine salt]", "values": [{"measurement": "EC50", "setting": "Table 1b, read-out: EDG1 EC50", "value": "< 1", "unit": "nM"}]}
{"compound": "CC(C)Cc1ccc(-c2nc(-c3ccc(CN4CCC(Cc5ccncc5)(C(=O)O)CC4)cc3)no2)cc1Cl", "note": "[Example 43, 1-{4-[5-(3-Chloro-4-isobutyl-phenyl)-[1,2,4]-oxadiazol-3-yl]-benzyl}-4-pyridin-4-ylmethyl-piperidine-4-carboxylic acid tert-butyl amine salt]", "values": [{"measurement": "EC50", "setting": "Table 1b, read-out: EDG1 EC50", "value": "< 1", "unit": "nM"}]}
